From paper PMC8070648, “Simultaneous Visualization of ^161Tb- and ^177Lu-Labeled Somatostatin Analogues Using Dual-Isotope SPECT Imaging” (Pharmaceutics, 2021) come the findings set out here.

One data set deals with AR42J tumor-bearing mice. The data set can be described thus: Biodistribution in AR42J tumor-bearing nude mice. It is filed as in vivo. The settings on record: i.v. 5 MBq, 1 nmol/mouse. An excerpt: Five-week-old female CD-1 nude mice were purchased from Charles River Laboratories (Sulzfeld, Germany).
Data set [1] in a line: n-octanol/PBS distribution coefficient (logD), shake-flask method. The settings on record: PBS pH 7.4; average ± SD. It is filed as physicochemical. The protocol:
DOTA-[Tyr^3]-octreotide (DOTATOC) was kindly provided by ITM Medical Isotopes GmbH, Munich, Germany.
Figure S3. Graphs of bars representing the percentage of intact radiopeptide investigated at 1 h, 4 h, and 24 h after preparation and dilution in saline (10 MBq/250 μL). (A) Percentage of intact radiopeptide in solution in the absence of ascorbic acid; (B) Percentage of intact radiopeptide in solution in the presence of ascorbic acid.
S4. Determination of n‐Octanol/PBS Distribution Coefficients (LogD Values) Purpose: The n‐octanol/PBS distribution coefficients (logD values) were assessed for each radiopeptide in order to investigate their hydrophilicity and enable comparison of […]
DOTA‐LM3) were determined by a shake‐flask method, as previously reported. […] The logD values were calculated as the logarithm of the ratio of counts per minute (cpm) measured in the n‐octanol phase relative to the cpm measured in the PBS pH 7.4 phase. The experiments were performed three times with five replicates for each radiopeptide and the logD value was expressed as the average ± standard deviation (SD) of the values obtained in each experiment. […]
Methods: A potential blockade of the uptake of [161Tb]Tb‐DOTA‐LM3 into AR42J cells was determined in the presence of >1000‐fold excess unlabeled DOTANOC or DOTA‐LM3 relative to the radiopeptide using the same protocol as reported in the main article. […]

With `C[C@@H](O)[C@@H]1NC(=O)[C@H](CCCCN)NC(=O)[C@@H](Cc2c[nH]c3ccccc23)NC(=O)[C@H](Cc2ccc(O)cc2)NC(=O)[C@@H](NC(=O)[C@@H](Cc2ccccc2)NC(=O)CN2CCN(CC(=O)O)CCN(CC(=O)O)CCN(CC(=O)O)CC2)CSSC[C@@H](C(=O)N[C@H](CO)[C@@H](C)O)NC1=O` [[^177Lu]Lu-DOTATOC] [metal not drawn, reference compound], in the data set on AR42J tumor-bearing mice (2 h p.i.), the “AR42J Tumor” value is 8.9 ± 1.5 % IA/g, the Adrenals is given as 0.28 ± 0.08 % IA/g, the Blood was ≤ 0.10 % IA/g and the Femur was ≤ 0.10 % IA/g. Further, in the data set on AR42J tumor-bearing mice (2 h p.i.), the Heart is ≤ 0.10 % IA/g, the Intestines is given as 0.20 ± 0.05 % IA/g, the Liver stood at 0.26 ± 0.07 % IA/g and the Lung was determined as 0.37 ± 0.06 % IA/g. In the data set on AR42J tumor-bearing mice (2 h p.i.), the Muscle is ≤ 0.10 % IA/g, the Pancreas stood at 0.80 ± 0.13 % IA/g and the Stomach came out at 0.65 ± 0.11 % IA/g. Also, in the data set on AR42J tumor-bearing mice (24 h p.i.), the Blood is given as ≤ 0.10 % IA/g, the Femur is reported as ≤ 0.10 % IA/g, the Heart is ≤ 0.10 % IA/g and the Intestines is reported as ≤ 0.10 % IA/g. Besides, in the data set with AR42J tumor-bearing mice (24 h p.i.), the Kidneys was found to be 5.9 ± 2.1 % IA/g, the Liver turned out to be 0.13 ± 0.02 % IA/g, the Muscle is on record as ≤ 0.10 % IA/g and the Pancreas is on record as 0.21 ± 0.04 % IA/g. Besides, the Spleen with AR42J tumor-bearing mice (24 h p.i.) is ≤ 0.10 % IA/g. In addition, the “logD value (n-octanol/PBS distribution coefficient)” value in data set [1] is −3.1 ± 0.2.

With `C[C@@H](O)[C@@H]1NC(=O)[C@H](CCCCN)NC(=O)[C@@H](Cc2c[nH]c3ccccc23)NC(=O)[C@H](Cc2ccc(O)cc2)NC(=O)[C@@H](NC(=O)[C@@H](Cc2ccccc2)NC(=O)CN2CCN(CC(=O)O)CCN(CC(=O)O)CCN(CC(=O)O)CC2)CSSC[C@@H](C(=O)N[C@H](CO)[C@@H](C)O)NC1=O` [[^161Tb]Tb-DOTATOC] [metal not drawn], in data set [1], the “logD value (n-octanol/PBS distribution coefficient)” value is given as −3.3 ± 0.2.
